Read-outs that look alike come from different tables or passages of the source.
Tests used:
age spots = conditions: added topically, Chinese females with age spots; cited from earlier work
melanoma cells = conditions: cited from earlier work
melanocytes = conditions: cited from earlier work
[1] = system: full-thickness wounds, Red Duroc pig; assay: Red Duroc pig wound scar study: scar area and wound area; format: in vivo; design: scar area reduction / scar area smaller than control wounds / wound area smaller than control (less swollen) / wound area larger than control (less contracted): concentration or dose not given beside the values
Procedure: A porcine wound scar study was conducted in the Red Duroc pig. 4 rows of 5 (2×2 cm) full-thickness wounds were created, either side of the spine, on the shaved backs of 10 Red Durocs (FIGS. 1, 4). […] Two wounds per animal were biopsied (6 mm punch) at 7, 14, 21, 28 and 42 days post wounding. The remaining 10 wound scars per animal were photographed and harvested at day 56 post-wounding, giving a total of 5 wounds per position, 50 wounds in total for each group. The scar closest to the average scar area, at each position, for both control and sal-treated wounds are presented (FIG. 5b). […] Indeed, by day 28 and 42 post-wounding the scar area of the sal-treated wounds was already 34.1% and 37.7% smaller than control wounds (FIG. 6a; ***P<0.001). Wound area was also measured in early time points.

[2] = system: full-thickness wounds, Red Duroc pig; assay: Red Duroc pig wound scar study: scar scale scores; format: in vivo
Source text: Anatomically and physiologically, porcine skin is very similar to human skin [19]. Wounds in small mammal skin, which is untethered, heal primarily by wound contraction, whereas porcine and human skin wounds close primarily by wound re-epithelialisation. The Red Duroc pig is well established as a reproducible model of fibro proliferative and hypertrophic scar formation. Similar to human hypertrophic scars, Red Duroc pigs heal wounds with an excessive amount of collagen deposition and increased wound contraction. In addition, the wounds heal with hyperpigmentation at the wound margins creating hyperpigmented scars and the scars are raised, similar to human scars. […] A porcine wound scar study was conducted in the Red Duroc pig. 4 rows of 5 (2×2 cm) full-thickness wounds were created, either side of the spine, on the shaved backs of 10 Red Durocs (FIGS. 1, 4). […] Two wounds per animal were biopsied (6 mm punch) at 7, 14, 21, 28 and 42 days post wounding. The remaining 10 wound scars per animal were photographed and harvested at day 56 post-wounding, giving a total of 5 wounds per position, 50 wounds in total for each group. A number of scales have been developed to score the severity of human scars. The Vancouver scar scale (VSS), the Manchester scar scale (MSS) and the patient and observer scar assessment scale (POSAS). We developed our own scale to score the severity of the Red Duroc scars based on the VSS [7] and the MSS [8]. The patient and observer scar assessment scale (POSAS) could not be used as it requires patient involvement. The VSS measures four parameters: pigmentation, vascularity, pliability and height, while the MSS measures colour, contour, distortion and texture. Our scar scale was developed to score a number of scar characteristics including: pigmentation, colour match with surrounding tissue, skin sheen, pliability, texture and height contour.

βARs = system: βARs; design: dose or concentration left out as unconfirmed; conditions: cited from earlier work
[3] = 5 mM in Granugel, 500 μl per wound daily, day 56, vs control

C=CCCCCCCCCC(=O)N[C@@H](Cc1ccccc1)C(=O)O [undecylenoyl phenylalanine]
skin lightening (age spots): skin lightening effect
melanin production (melanoma cells): suppressed melanin production

CNCC(O)c1ccc(O)c(O)c1 (stereo not drawn) [Adrenaline, adrenaline]
melanin production / melanogenesis in melanocytes (melanocytes): increased melanin production
melanin production / melanogenesis in melanocytes (melanocytes; listed as Epinephrine): increases melanin synthesis

CC(C)(C)NCC(O)c1ccc(O)c(CO)c1 (stereo not drawn) [salbutamol]
scar area reduction ([1]; 56 days post wounding, vs control): 47.1%
wound area smaller than control (less swollen) ([1]; after 7 days): 11%
wound area larger than control (less contracted) ([1]; after 14 days): 23%
wound area vs control wounds ([1]; by 28 days): slightly smaller
scar area smaller than control wounds ([1]; day 28 post-wounding): 34.1%
scar area smaller than control wounds ([1]; day 42 post-wounding): 37.7%
re-epithelialisation rate vs control wounds ([1]; early time points): No significant difference
improvement of colour match score [2, 3]: 44%
improvement of height contour score [2, 3]: 34%
improvement of pigmentation score [2, 3]: 48%
improvement of pliability score [2, 3]: 22%
improvement of sheen score [2, 3]: 53%
improvement of texture score [2, 3]: 22%
scar appearance vs control scars ([2]; day 56 post-wounding, P<0.0001): less hyper-pigmented
activation of βARs (βARs): activate all βARs
cAMP levels (melanocytes; melanocytes, in association with increased melanogenesis): enhances cAMP levels

NC[C@H](O)c1ccc(O)c(O)c1 [noradrenaline]
melanin production / melanogenesis in melanocytes (melanocytes): no effect

From patent publication US9943471B2, “Beta-2-adrenergic receptor agonist for improving skin scar colour matching” (UNIVERSITY OF LEICESTER, priority 2013, dated 2018)
